Data reported in patent EP4786487A1, “PEPTIDE” (Peptidream Inc, priority 2023, dated 2025).
Starred links: 1 amine or outer side, 2 acyl side, 3 side chain; linkers in the order of their positions; H or OH if unused. Positions of bridges follow the written chain, without caps; N, C: chain ends. Non-standard residues stand in square brackets, D forms with d. Residues, ends and D or L forms follow the SMILES beside them. Phe(3-OCH2COOH) = N[C@@H](Cc1cccc(OCC(=O)O)c1)C(=O)O; Phe(4-COOH) = N[C@@H](Cc1ccc(C(=O)O)cc1)C(=O)O; Gly(N(CH2)3COOH) = O=C(O)CCCNCC(=O)O; X1 = CCCCCCC[C@H](N[*:1])C(=O)[*:2]; NMeF = CN[C@@H](Cc1ccccc1)C(=O)O; NMeA = CN[C@@H](C)C(=O)O

How the values were obtained:
GDF-11 = biological target: T1, GDF-11 (Homo sapiens, UniProt O95390); experiment: Reporter gene assay for myostatin signaling in HEK-Blue TGF-β Cells, GDF-11; assay type: cell-based; settings: GDF-11 3 ng/mL
T1 construct: purchased R&D systems 1958-GD-G8/CF
T1 sequence (O95390 299-407): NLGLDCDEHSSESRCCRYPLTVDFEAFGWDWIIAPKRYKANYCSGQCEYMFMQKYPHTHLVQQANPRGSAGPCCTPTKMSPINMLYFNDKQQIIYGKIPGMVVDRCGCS
Procedure: In this Example, the in vitro activity of the peptide Myostatin_99_v145 (SEQ ID NO: 30) was evaluated using a reporter gene assay for myostatin signaling.
HEK-Blue (trademark) TGF-β Cells (hkb-tgfbv2, InvivoGen) were cultured in DMEM High glucose GlutaMAX (10569010, Thermo) containing 10% FBS (Heat-inactivated FBS QUALIFIED, 10270-106, Gibco), […] Normocin (ant-nr-05, InvivoGen), […] Zeocin (ant-zn-05, InvivoGen), and 50 µg/mL Gentamicin (11980-14, Nacalai Tesque). The cultured HEK-Blue (trademark) TGF-β Cells were suspended in an assay medium containing DMEM High glucose GlutaMAX, 50 µg/mL Gentamicin, and 1% bovine serum albumin (A7030, Sigma). The cells were seeded at 4 × 10^4 cells/well onto a 96-well plate (356461, Corning), namely BioCoat poly-D-lysine multi-well plate, and allowed to stand for 30 min. […]
To each well of a UV-Star µClear 96-well (655801, Greiner), 180 µL of Detection buffer (prepared by diluting, with 17.64 mL of distilled water, 180 µL of QUANTI-Blue buffer and 180 µL of QUANTI-Blue solution) was dispensed. […] The plate was covered and incubated in a CO2 incubator for 3 to 5 hours, and absorbance was measured (Envision 2104, PerkinElmer, 620 nm/bp 40 nm). Based on the absorbance, IC50 values of the peptide were calculated using software (Prism 9, GraphPad).

DBA/2 mdx model mice = experiment: Subcutaneously administered peptide, improvement of muscle strength in DBA/2 mdx mice; assay type: in vivo, DBA/2N-mdx mice; settings: Fig. 5
Procedure: In this Example, the effect of the peptide Myostatin_99_v145 (SEQ ID NO: 30) was evaluated on improvement of muscle strength in DMD model mice.
To twenty-week-old female DBA/2N-mdx mice (Central Institute for Experimental Medicine and Life Science), Myostatin_99_v145 or solvent control (PBS) was subcutaneously administered once a week for 4 weeks as shown in Table 12. As a Comparative Example, a single intravenous dose of anti-latent myostatin antibody (GYM329-BS) was administered.
(§1) Using a smart-type grip strength meter for rats and mice (MK-380V; Muromachi Kikai Co., Ltd.), forelimb and hindlimb grip strength measurements were performed on the day of completion of the acclimation period (grouping day), and on Days 7, 14, 21, and 26. The measurements were conducted with individual identification numbers blinded so that the examiner was unaware of the test conditions of the mice. The grip strength was measured seven times consecutively, and the average of five points, excluding the two points: the highest and lowest values, was used as individual data.

B10-mdx mice = experiment: Orally administered peptide, improvement of muscle strength in B10-mdx mice; assay type: in vivo, C57BL/10-mdx/Jcl mice; settings: oral administration 65 and 200 mg/kg once a week, 4 times, after fasting; Fig. 6
Procedure: In this Example, the effect of the peptide Myostatin_99_v145 (SEQ ID NO: 30) was evaluated on improvement of muscle strength when the peptide was orally administered to DMD model mice.
B10-mdx mice were used as the DMD model mice. To five-week-old female C57BL/10-mdx/Jcl mice (CLEA Japan, Inc.; NPL 17), the peptide or solvent control (Vehicle) PBS was subcutaneously administered once a week for 4 weeks. In addition, the peptide or the solvent control, namely 30% Labrasol/PBS, was administered orally to the DMD model mice once a week after fasting in a total of 4 times.
as §1, with “day; 5-week-old),” for “day),”, “Day 7 (6-week-old), Day 14 (7-week-old), Day 20 (8-week-old),” for “Days 7, 14, 21,”, “Day 27 (9-week-old).” for “26.”

CCCCCCC[C@@H]1NC(=O)[C@H](Cc2ccccc2)N(C)C(=O)[C@H](CCCNC(=N)N)NC(=O)[C@H](Cc2ccc(C(=O)O)cc2)NC(=O)[C@H](Cc2cccc(OCC(=O)O)c2)NC(=O)[C@H](C)N(C)C(=O)[C@H]([C@@H](C)CC)NC(=O)[C@H](Cc2ccccc2)N(C)C(=O)[C@H](Cc2ccc(O)cc2)NC(=O)[C@H](Cc2c[nH]c3ccccc23)NC(=O)[C@H](C)NC(=O)CN(CCCC(=O)O)C(=O)CSC[C@H](C(=O)O)NC(=O)[C@H](Cc2ccccc2)N(C)C(=O)[C@H](C)N(C)C1=O [Myostatin_99_v145] ({CH2CO}-[Gly(N(CH2)3COOH)]AWY[NMeF]I[NMeA][Phe(3-OCH2COOH)][Phe(4-COOH)]R[NMeF][X1][NMeA][NMeF][dC]-OH; thioether N-15)
IC50 (GDF-11; read-out: IC50 (nmol/L) GDF11): 61.2 nmol/L
IC90 (GDF-11; read-out: IC90 (nmol/L) GDF11): 702 nmol/L
time-course change in grip strength (DBA/2 mdx model mice; 1 and 3 mg/kg subcutaneous once a week for 4 weeks, vs. PBS Vehicle group): continuous increase in grip strength was observed in a dose-dependent manner
maximum effect (grip strength) compared with GYM329-BS (DBA/2 mdx model mice; GYM329-BS 10 mg/kg single intravenous dose): higher than that of GYM329-BS
time-course change in grip strength (B10-mdx mice): continuous increase in grip strength was observed in a dose-dependent manner
